For one test, the target named is T1, M4 mAChR (Homo sapiens, UniProt P08173).
T1 construct: expressed in transfected cells; host or cells: CHO-K1
T1 sequence (P08173 1-479): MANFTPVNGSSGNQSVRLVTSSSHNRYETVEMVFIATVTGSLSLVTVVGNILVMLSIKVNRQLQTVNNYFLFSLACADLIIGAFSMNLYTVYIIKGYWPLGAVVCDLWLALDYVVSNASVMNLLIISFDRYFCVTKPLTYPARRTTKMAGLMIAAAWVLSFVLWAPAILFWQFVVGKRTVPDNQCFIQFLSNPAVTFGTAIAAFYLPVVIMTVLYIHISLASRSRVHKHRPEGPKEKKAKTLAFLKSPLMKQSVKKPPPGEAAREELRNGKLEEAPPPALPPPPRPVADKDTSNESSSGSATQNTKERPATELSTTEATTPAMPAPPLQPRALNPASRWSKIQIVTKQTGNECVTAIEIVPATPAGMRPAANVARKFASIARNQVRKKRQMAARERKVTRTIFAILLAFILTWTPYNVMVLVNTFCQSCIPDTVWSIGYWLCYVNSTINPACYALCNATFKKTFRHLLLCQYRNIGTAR
Briefly: cAMP TR-FRET assay with forskolin, M4-overexpressing CHO-K1 cells. The test is classed as cell-based. An excerpt: The M2 and M4 mACh receptors are Gi-coupled receptors which, upon activation, produce a decrease in cAMP. Assays were developed that measured the potency and efficacy of compounds at the M2 or M4 mAChR using M2- or M4-overexpressing CHO-K1 cell lines. Time-resolved fluorescence resonance energy transfer (TR-FRET) technology was used, where signal occurs as a result of transfer of energy if the donor molecule is in close proximity to an acceptor molecule when the molecules have bound to the molecule of interest. The cAMP detection is a competition binding assay, where cAMP produced by cells competes for binding with the labeled donor molecule to the anti-cAMP acceptor antibody. Due to the low basal levels of cAMP in the CHO-K1 cell line, forskolin was used to increase cAMP levels to enable assessment of agonist activity at the mAChR of interest.
In general terms: In TR-FRET formats the signal depends on donor and acceptor labels being close together.

Test [1] deals with T2, M3 muscarinic acetylcholine receptor (mAChR) (Homo sapiens, UniProt P20309).
T2 construct: expressed in transfected cells; host or cells: CHO-K1
T2 sequence (P20309 whole entry): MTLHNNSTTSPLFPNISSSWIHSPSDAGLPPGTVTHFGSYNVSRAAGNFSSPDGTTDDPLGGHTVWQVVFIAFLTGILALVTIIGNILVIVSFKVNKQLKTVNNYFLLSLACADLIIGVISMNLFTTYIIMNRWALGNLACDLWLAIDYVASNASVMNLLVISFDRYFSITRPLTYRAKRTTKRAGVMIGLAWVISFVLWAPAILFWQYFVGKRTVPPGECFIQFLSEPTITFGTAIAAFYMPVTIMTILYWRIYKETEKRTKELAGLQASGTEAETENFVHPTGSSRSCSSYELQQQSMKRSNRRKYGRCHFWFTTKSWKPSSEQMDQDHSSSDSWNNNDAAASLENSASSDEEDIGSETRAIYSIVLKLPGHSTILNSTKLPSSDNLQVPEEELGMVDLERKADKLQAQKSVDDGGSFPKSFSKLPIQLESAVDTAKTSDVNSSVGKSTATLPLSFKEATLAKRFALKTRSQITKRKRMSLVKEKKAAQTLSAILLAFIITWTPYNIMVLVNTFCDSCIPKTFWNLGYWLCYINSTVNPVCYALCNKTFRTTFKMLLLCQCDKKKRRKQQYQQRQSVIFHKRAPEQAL
Briefly: FLIPR calcium assay (Fluo 8), M3-overexpressing CHO-K1 cells. The test is classed as cell-based. The procedure: Stimulation of a Gq-coupled G-protein coupled receptors (GPCRs), result in an efflux of calcium from the endoplasmic reticulum to the cytoplasm (Berridge, 1993), thus rendering this assay appropriate for the assessment of M1, M3 and M5 receptors. CHO-K1 cells overexpressing the M1, M3, or M5 muscarinic acetylcholine receptor (mAChR) were dispensed at 15,000 cells per well in 30 μl volume to 384-well plates and grown overnight at 37° C. in a 5% CO2 atmosphere. Fluo-8 Solution, 10 μl per well, was added to each well and incubated for 30 minutes at 37° C. in a 5% CO2 atmosphere. Compounds diluted in Hanks' balanced salt solution (HBSS) were transferred to the cell assay plate at 10 μl per well, and then read on a FLIPR instrument. EC50 and Emax figures were calculated from the resulting data for each receptor subtype.

As a reminder, the Emax is the size of the effect at its maximum, as opposed to the concentration needed. For orientation: EC50 means the concentration needed to bring the measured effect to its halfway point. As for `CCOC(=O)N1CC2(CC[C@@H](N3CCN(c4cc(F)cnc4-c4cc(C)[nH]n4)CC3)C2)C1` [Compound A101], the Emax on M4 mAChR (cAMP TR-FRET with forskolin) fell in the range of 80 to 100%. Further, the EC50 in test [1] (FLIPR calcium) is more than 10 µM. On M4 mAChR (cAMP assay), `CCOC(=O)N1CC2(CC[C@@H](N3CCN(c4cc(C#N)cnc4-c4cnccn4)CC3)C2)C1` [Compound A272] returned an Emax of 19 to 49.9%. In addition, the EC50 in test [1] (FLIPR) is more than 10 µM. On the same counts, the results for `CCOC(=O)N1CC2(CC[C@@H](N3CCN(c4cc(Cl)cnc4-c4cn(C)nn4)CC3)C2)C1` [Compound A256] are 80 to 100% and more than 10 µM. In turn, `CCOC(=O)N1CC2(CC[C@@H](N3CCN(c4cc(F)cnc4-c4ccc(C#N)c(OC)c4)CC3)C2)C1` [Compound A43] showed an Emax at M4 mAChR (cAMP TR-FRET with forskolin) of 80 to 100%. Besides, the EC50 in test [1] (FLIPR calcium) was more than 10 µM.

On M4 mAChR (cAMP TR-FRET with forskolin), `CCOC(=O)N1CC2(CC[C@@H](N3CCN(c4cc(F)cnc4-c4ccc5c(c4)OCCN5)CC3)C2)C1` [Compound A95] had an Emax of 80 to 100%. Moreover, the EC50 in test [1] (FLIPR calcium) is more than 10 µM. `CCOC(=O)N1CC2(CC[C@@H](N3CCN(c4cc(F)cnc4-c4cnc(C5CC5)nc4)CC3)C2)C1` [Compound A183] registered an Emax on M4 mAChR (cAMP assay) of 80 to 100%. Moreover, the EC50 in test [1] (FLIPR) is more than 10 µM. Consider `CCOC(=O)N1CC2(CC[C@@H](N3CCN(c4cc(F)cnc4-c4cc(F)ccc4O)CC3)C2)C1` [Compound A42], for which the Emax on M4 mAChR (cAMP TR-FRET with forskolin) was 80 to 100%. In test [1] (FLIPR calcium), the EC50 is more than 10 µM. Consider `CCOC(=O)N1CC2(CC[C@@H](N3CCN(c4cc(F)cnc4-c4cnc(C)cn4)CC3)C2)C1` [Compound A231], for which the Emax on M4 mAChR (cAMP assay) fell in the range of 50 to 79.9%. Besides, the EC50 in test [1] (FLIPR) was more than 10 µM. As to `CCOC(=O)N1CC2(CC[C@@H](N3CCN(c4cc(F)cnc4-c4ccc(F)nc4C)CC3)C2)C1` [Compound A161], on M4 mAChR (cAMP assay), the maximum response (Emax) is 80 to 100%. For the same compound, the EC50 in test [1] (FLIPR) is more than 10 µM. On M4 mAChR (cAMP TR-FRET with forskolin), `CCOC(=O)N1CC2(CC[C@@H](N3CCN(c4cc(F)cnc4NC4CCOCC4)CC3)C2)C1` [Compound A9, ethyl (6R)-6-[4-[5-fluoro-2-(tetrahydropyran-4-ylamino)-3-pyridyl]piperazin-1-yl]-2-azaspiro[3.4]octane-2-carboxylate] displayed an Emax of 80 to 100%. Further, in test [1] (FLIPR calcium), the EC50 is more than 10 µM.

The compound `CCOC(=O)N1CC2(CC[C@@H](N3CCN(c4cc(F)cnc4-c4cncc(N)c4)CC3)C2)C1` [Compound A174] showed an Emax on M4 mAChR (cAMP assay) of 80 to 100%. Also, the EC50 in test [1] (FLIPR) is more than 10 µM.

In the case of `CCOC(=O)N1CC2(CC[C@@H](N3CCN(c4cc(F)cnc4-c4cccc(F)c4CO)CC3)C2)C1` [Compound A162], the Emax on M4 mAChR (cAMP assay) was in the range of 80 to 100%. For the same compound, the EC50 in test [1] (FLIPR) is more than 10 µM. Taken in the same sequence, the figures for `CCOC(=O)N1CC2(CC[C@@H](N3CCN(c4cc(F)cnc4-c4ccn(C(C)(C)C)n4)CC3)C2)C1` [Compound A200] were 19 to 49.9% and more than 10 µM.

With `[2H]C([2H])([2H])n1ccc(-c2ncc(F)cc2N2CCN([C@@H]3CCC4(C3)CN(C(=O)OCC)C4)CC2)n1` [Compound A199], the Emax at M4 mAChR (cAMP assay) lay in the range of 19 to 49.9%. The EC50 in test [1] (FLIPR) is more than 10 µM.

Consider `CCOC(=O)N1CC2(CC[C@@H](N3CCN(c4cc(F)cnc4-c4ccc(Cl)cn4)CC3)C2)C1` [Compound A259], for which the Emax on M4 mAChR (cAMP assay) lay in the range of 80 to 100%. Also, the concentration for a half-maximal effect (EC50) in test [1] (FLIPR) is more than 10 µM. `CCOC(=O)N1CC2(CC[C@@H](N3CCN(c4cc(F)cnc4-c4ccc5cnn(C)c5c4)CC3)C2)C1` [Compound A54]: on M4 mAChR (cAMP TR-FRET with forskolin), the Emax lay within 80 to 100%. Also, the EC50 in test [1] (FLIPR calcium) was more than 10 µM. On the same counts, the results for `CCOC(=O)N1CC2(CC[C@@H](N3CCN(c4cc(F)cnc4-c4cnccc4C)CC3)C2)C1` [Compound A35] are 80 to 100% and more than 10 µM.

`CCOC(=O)N1CC2(CC[C@@H](N3CCN(c4cc(F)cnc4-c4ccc(C#N)cn4)CC3)C2)C1` [Compound A234]: the Emax at M4 mAChR (cAMP assay) was in the range of 80 to 100%. Moreover, in test [1] (FLIPR), the EC50 is more than 10 µM. On M4 mAChR (cAMP assay), `CCOC(=O)N1CC2(CC[C@@H](N3CCN(c4cc(F)cnc4-c4cn(C)c5ncccc45)CC3)C2)C1` [Compound A164] returned an Emax of 50 to 79.9%. The 50% effective concentration (EC50) in test [1] (FLIPR) was more than 10 µM. Taken in the same sequence, the figures for `CCOC(=O)N1CC2(CC[C@@H](N3CCN(c4cc(Cl)cnc4-c4ccn(C)n4)CC3)C2)C1` [Compound A208] were 50 to 79.9% and more than 10 µM. Take `CCOC(=O)N1CC2(CC[C@@H](N3CCN(c4cc(F)cnc4-c4csc(CO)c4)CC3)C2)C1` [Compound A86]: the Emax on M4 mAChR (cAMP TR-FRET with forskolin) fell in the range of 80 to 100%. Moreover, the EC50 in test [1] (FLIPR calcium) is more than 10 µM. `CCOC(=O)N1CC2(CC[C@@H](N3CCN(c4cc(F)cnc4-c4ccc(OC)cc4C#N)CC3)C2)C1` [Compound A152] yielded an Emax at M4 mAChR (cAMP assay) of 80 to 100%. Further, in test [1] (FLIPR), the concentration giving a half-maximal response (EC50) is more than 10 µM. Taken in the same sequence, the figures for `CCOC(=O)N1CC2(CC[C@@H](N3CCN(c4cc(F)cnc4-c4ccc5c(c4)CN(C)C5=O)CC3)C2)C1` [Compound A192] were 80 to 100% and more than 10 µM. As for `CCOC(=O)N1CC2(CC[C@@H](N3CCN(c4cc(F)cnc4-c4ccn(C)n4)CC3)C2)C1` [Compound A120], the Emax on M4 mAChR (cAMP TR-FRET with forskolin) lay within 80 to 100%. For the same compound, the EC50 in test [1] (FLIPR calcium) is more than 10 µM. Consider `CCOC(=O)N1CC2(CC[C@@H](N3CCN(c4cc(Cl)cnc4-c4nncs4)CC3)C2)C1` [Compound A249], for which the Emax at M4 mAChR (cAMP assay) lay in the range of 80 to 100%. Besides, the EC50 in test [1] (FLIPR) is more than 10 µM. On the same counts, the results for `CCOC(=O)N1CC2(CC[C@@H](N3CCN(c4cc(F)cnc4-c4ccc(F)c(O)c4)CC3)C2)C1` [Compound A156] are 80 to 100% and more than 10 µM.

In turn, `CCOC(=O)N1CC2(CC[C@@H](N3CCN(c4cc(F)cnc4-c4cc(F)cc(CO)c4)CC3)C2)C1` [Compound A154] showed a maximum response (Emax) on M4 mAChR (cAMP assay) of 80 to 100%. The EC50 in test [1] (FLIPR) was more than 10 µM. `CCOC(=O)N1CC2(CC[C@@H](N3CCN(c4cc(F)cnc4-c4ccc5c(c4)OCCO5)CC3)C2)C1` [Compound A48]: the Emax at M4 mAChR (cAMP TR-FRET with forskolin) was 80 to 100%. The EC50 in test [1] (FLIPR calcium) was more than 10 µM. Taken in the same sequence, the figures for `CCOC(=O)N1CC2(CC[C@@H](N3CCN(c4cc(F)cnc4-c4cc(O)ccc4F)CC3)C2)C1` [Compound A127] were 80 to 100% and more than 10 µM.

Turning to `CCOC(=O)N1CC2(CC[C@@H](N3CCN(c4cc(F)cnc4-c4ccc(C(F)(F)F)nn4)CC3)C2)C1` [Compound A243], the Emax on M4 mAChR (cAMP assay) lay within 50 to 79.9%. Moreover, in test [1] (FLIPR), the EC50 is more than 10 µM. In the case of `CCOC(=O)N1CC2(CC[C@@H](N3CCN(c4cc(F)cnc4-c4cc(F)cnc4F)CC3)C2)C1` [Compound A232], the EC50 in test [1] (FLIPR) was more than 10 µM. Still for that read-out and setting: as for `CCOC(=O)N1CC2(CCC(N3CCN(c4cc(F)cnc4-c4cnccn4)CC3)CC2)C1` [Compound A224], the figure is more than 10 µM.

`CCOC(=O)N1CC2(CC[C@@H](N3CCN(c4cc(F)cnc4-c4ccn(COCC[Si](C)(C)C)n4)CC3)C2)C1` [Compound A196]: the EC50 in test [1] (FLIPR) is more than 10 µM. Still for that read-out and setting: as for `CCOC(=O)N1CC2(CC(N3[C@@H]4CC[C@H]3CN(c3cc(F)cnc3-c3cnccn3)C4)CS2)C1` (single isomer, unassigned) [Compound A220], the figure is more than 10 µM; as for `CCOC(=O)N1CC2(CC[C@@H](N3CCN(c4cc(F)cnc4-c4cnn(C(C)C)n4)CC3)C2)C1` [Compound A257], more than 10 µM; as for `CCOC(=O)N1CC2(CC[C@@H](N3CCN(c4cc(F)cnc4-c4ccnc(C)n4)CC3)C2)C1` [Compound A254], more than 10 µM. Take `CCOC(=O)N1CC2(CCC(N3[C@@H]4CC[C@H]3CN(c3cc(F)cnc3-c3cnccn3)C4)C2)C1` (single isomer, unassigned) [Compound A222]: the EC50 in test [1] (FLIPR) is more than 10 µM.

Values taken from patent US20260098026A1, “M4 ACTIVATORS/MODULATORS AND USES THEREOF” (Cerevel Therapeutics, LLC, priority 2022, published 2026).
